Tests used:
[1] = tested on: colon carcinoma cell CT-26; assay: Cellular uptake test under various NaHS concentrations (gamma counter); format: cell-based; conditions: CT-26 cells
Description: Cellular drug uptake is an important prognostic factor in the diagnosis of diseases. Therefore, to examine cellular uptake of the ^64Cu-labeled complex compounds according to the present disclosure, experiments for measuring changes in the cellular uptake under various concentrations of hydrogen sulfide were performed.
A colon carcinoma cell CT-26 was seeded in each plate at a density of 5×10^6, and then 10 μCi-300 μCi of ^64Cu-labeled complex compound of Examples 1, 7 or 9 according to the present disclosure was treated thereto, followed by incubation for 10 minutes. The cells were washed with PBS, and then 0 μM, 1 μM, or 50 μM of NaHS solution was added thereto, followed by incubation for 5 minutes. Thereafter, the cells were washed with PBS, and then cells were removed from the plate by adding trypsin and EDTA, followed by centrifugation. Supernatants were discarded and radiation of remaining cells was measured by using a gamma counter.

Paw inflammation model = format: in vivo, Balb/c or ICR mice
Description: (1) Paw Pain Inflammation Model
A small amount of CFA (complete Freund's adjuvant) or formalin was injected into only one paw (right) of the hind paws of Balb/c or ICR mice to establish inflammation models. 1 day after injection of the inflammation inducer, the mice were used in imaging or other in vivo experiments.
It is a known fact that inflamed sites show high concentrations of hydrogen sulfide.
Nuclear medicine imaging was measured by using an Inveon PET/CT system of Siemens Healthcare, and optical imaging was measured by using IVIS spectrum CT equipment. Cherenkov radiation emitted from ^64Cu was measured by using a highly sensitive CCD (charge-coupled device) camera.
Imaging was measured for 1 minute to 5 minutes, and a radiation dose was about 50 μCi to 2000 μCi, and photographs were variously taken as needed, such as immediately after first injection, at 1 hour, 4 hours, and 24 hours later.

[2] = Test of hydrogen sulfide detection sensitivity (% decomplexation with NaHS, radio-TLC); format: physicochemical; conditions: 37° C. for 15 minutes
Description: To measure hydrogen sulfide detection sensitivity of the ^64Cu-labeled complex compound according to the present disclosure, the following experiment was performed.
About 45 μCi-55 μCi of ^64Cu-labeled complex compound (250 μL of triple distilled water) was mixed with various concentrations of NaHS solution (250 µL of triple distilled water), and stirred at 37° C. for 15 minutes (a total volume used in the reaction was equally 500 μL). After completion of the reaction, the resulting products were strongly stirred to mix appropriately.
Formation of copper sulfide (^64CuS) was confirmed by quantification of % decomplexation by using a radio-TLC scanner, and results are shown in the following Tables 2 and 3.

[3] = Test of hydrogen sulfide detection over time (^64CuS formation, radio-TLC); format: physicochemical; set-up: unit not given here; conditions: 100 μM NaHS, 37° C.
Description: To examine reactivity of the ^64Cu-labeled complex compound according to the present disclosure over time, the following experiment was performed.
A detailed experimental method is as follows.
About 45 μCi-50 μCi of ^64Cu-labeled complex compound (250 μL of triple distilled water) was mixed with 100 μM of NaHS solution ([…] of triple distilled water), and stirred at 37° C. for 15 minutes. Formation of copper sulfide (^64CuS) was quantified by using a radio-TLC scanner.

[4] = Test of hydrogen sulfide selectivity (overall statements); format: physicochemical
Description: (§1) In addition to hydrogen sulfide, many different anions, radicals, etc. exist in the body. Therefore, to examine selective reactivity of the ^64Cu-labeled complex compound according to the present disclosure for sulfide ions, the following experiment was performed.
(§2) About 45 μCi-55 μCi of the ^64Cu-labeled complex compound (250 μL of triple distilled water) was mixed with 100 μM of various anion solutions (250 μL of triple distilled water) including biothiol, and stirred at 37° C. for 15 minutes.
(§3) Formation of copper sulfide (^64CuS) was quantified by using a radio-TLC scanner.
(§4) Various biothiol or salt solutions were prepared by dissolving the compounds in triple distilled water.
(§5) In Table, concentrations of all biothiols and other competitive materials are 100 μM. Further, specific concentrations of biothiols, anions, and oxidants used in Table are as follows: [L-Cys (1 mM); L-Hcys (10 mM); GSH (10 mM); DL-dithiothretitol (DTT, 100 μM); L-ascorbic acid (L-AsA, 10 mM); 2-mercaptoethanol (2-ME, 10 mM); NaCl (10 mm); KI (1 mM); Na2S2O3 (1 mM); Na2S2O5 (1 mM); NaOAc (1 mM); H2O2 ([…]); NaClO4 (100 μM); NaHCO3 (100 μM); NaNO2 ([…]); NaN3 (100 μM); ATB 337 (100 μM); diallyl trisulphide (100 μM)].

[5] = Hydrogen sulfide selectivity test: decomplexation by Cys; format: physicochemical; conditions: 100 μM or L-Cys (1 mM), 37° C. for 15 minutes
Description: as §1, §2, §3, §4, §5

[6] = Hydrogen sulfide selectivity test: decomplexation by Hcys; format: physicochemical; conditions: 100 μM or L-Hcys (10 mM), 37° C. for 15 minutes
Description: as §1, §2, §3, §4, §5

[7] = Hydrogen sulfide selectivity test: decomplexation by GSH; format: physicochemical; conditions: 100 μM or GSH (10 mM), 37° C. for 15 minutes
Description: as §1, §2, §3, §4, §5

[8] = Hydrogen sulfide selectivity test: decomplexation by DTT; format: physicochemical; conditions: DL-dithiothretitol (DTT, 100 μM); 37° C. for 15 minutes
Description: as §1, §2, §3, §4, §5

[9] = Hydrogen sulfide selectivity test: decomplexation by L-AsA; format: physicochemical; conditions: L-ascorbic acid; 100 μM or (L-AsA, 10 mM); 37° C. for 15 minutes
Description: as §1, §2, §3, §4, §5

[10] = Hydrogen sulfide selectivity test: decomplexation by ME; format: physicochemical; conditions: 2-mercaptoethanol; 100 μM or (2-ME, 10 mM); 37° C. for 15 minutes
Description: as §1, §2, §3, §4, §5

[11] = Hydrogen sulfide selectivity test: decomplexation by NaCl; format: physicochemical; conditions: 100 μM or NaCl (10 mm), 37° C. for 15 minutes
Description: as §1, §2, §3, §4, §5

[12] = Hydrogen sulfide selectivity test: decomplexation by Kl; format: physicochemical; conditions: 100 μM or KI (1 mM), 37° C. for 15 minutes
Description: as §1, §2, §3, §4, §5

[13] = Hydrogen sulfide selectivity test: decomplexation by Na2S2O3; format: physicochemical; conditions: 100 μM or (1 mM), 37° C. for 15 minutes
Description: as §1, §2, §3, §4, §5

[14] = Hydrogen sulfide selectivity test: decomplexation by Na2S2O5; format: physicochemical; conditions: 100 μM or (1 mM), 37° C. for 15 minutes
Description: as §1, §2, §3, §4, §5

[15] = Hydrogen sulfide selectivity test: decomplexation by NaOAc; format: physicochemical; conditions: 100 μM or (1 mM), 37° C. for 15 minutes
Description: as §1, §2, §3, §4, §5

[16] = Hydrogen sulfide selectivity test: decomplexation by H2O2; format: physicochemical; conditions: H2O2 (100 µM); 37° C. for 15 minutes
Description: as §1, §2, §3, §4, §5

[17] = Hydrogen sulfide selectivity test: decomplexation by NaClO4; format: physicochemical; conditions: NaClO4 (100 μM); 37° C. for 15 minutes
Description: as §1, §2, §3, §4, §5

[18] = Hydrogen sulfide selectivity test: decomplexation by NaHCO3; format: physicochemical; conditions: NaHCO3 (100 μM); 37° C. for 15 minutes
Description: as §1, §2, §3, §4, §5

[19] = Hydrogen sulfide selectivity test: decomplexation by NaNO2; format: physicochemical; conditions: NaNO2 (100 µM); 37° C. for 15 minutes
Description: as §1, §2, §3, §4, §5

[20] = Hydrogen sulfide selectivity test: decomplexation by NaN3; format: physicochemical; conditions: NaN3 (100 μM); 37° C. for 15 minutes
Description: as §1, §2, §3, §4, §5

[21] = Hydrogen sulfide selectivity test: decomplexation by ATB 337; format: physicochemical; conditions: ATB 337 (100 μM); 37° C. for 15 minutes
Description: as §1, §2, §3, §4, §5

[22] = Hydrogen sulfide selectivity test: decomplexation by DAT (diallyl trisulphide); format: physicochemical; conditions: DAT = diallyl trisulphide (100 μM); 37° C. for 15 minutes
Description: as §1, §2, §3, §4, §5

[23] = Retention/excretion after injection into sites on the backs of rats (optical imaging); format: in vivo; conditions: about 0.48 mCi injected into sites on the backs of rats
Description: Next, at the beginning of the second experiment, about 0.48 mCi of ^64Cu(II) ion, ^64CuS, ^64Cu-labeled complex compound according to Example 1, and ^64Cu-labeled complex compound according to Example 16 were injected into four sites on the backs of the same rats, respectively. Immediately, optical images were taken and shown in a lower left image of FIG. 4. A photograph taken after 4 hours was shown in a lower right image of FIG. 4.

With `CC1=NC(C)CNC(C)(C)CC(C)=NC(C)CNC(C)(C)C1.[64Cu+2]` (stereo not shown) [Example 7] the “Uptake (radiation of remaining cells, gamma counter)” value ([1]; NaHS Concentration 0 μM) was 20000, the “Uptake (radiation of remaining cells, gamma counter)” value ([1]; NaHS Concentration 1 μM) was 21000 and the “Uptake (radiation of remaining cells, gamma counter)” value ([1]; NaHS Concentration 50 μM) was 23000. For the same compound, the “uptake in inflamed paw versus opposite paw” value (Paw inflammation model; optical and nuclear medicine imaging performed 2 hours later) was “higher uptakes”.
In the case of `C1C[N]2CCC[N]3CCC[N](C1)[64Cu]23` [Example 21], the “% decomplexation” value ([2]; NaHS 0 μM) is reported as 0%, the “% decomplexation” value ([2]; NaHS 1 μM) is reported as 0% and the “% decomplexation” value ([2]; NaHS 10 μM) is reported as 6.2%. For the same compound, the “% decomplexation” value ([2]; NaHS 15 μM) was 10%, the “% decomplexation” value ([2]; NaHS 20 μM) was 58% and the “% decomplexation” value ([2]; NaHS 50 μM) was 63%. The “% decomplexation” value ([2]; NaHS 100 μM) was 100%, the “Formation of copper sulfide (^64CuS) over time” value (“Formation … over time” below) ([3]; 10 sec) was 52 and the “Formation … over time” value ([3]; 30 sec) was 72. The “Formation … over time” value ([3]; 60 sec) was 100, the “Formation … over time” value ([3]; 5 min) was 100 and the “Formation … over time” value ([3]; 10 min) was 100. For the same compound, the “Formation … over time” value ([3]; 15 min) was 100, the “selective reactivity with hydrogen sulfide versus biothiol compounds or anions, in words” value [4] was “did not selectively react with hydrogen sulfide” and the “Decomplexation [%]” value [5] was 9 ± 3%. The “Decomplexation [%]” value [6] was 30 ± 5%, the “Decomplexation [%]” value [7] was 33% and the “Decomplexation [%]” value [8] was 25%. The “Decomplexation [%]” value [9] was 4 ± 2%, the “Decomplexation [%]” value [10] was 2 ± 2% and the “Decomplexation [%]” value [11] was 0.4 ± 0.2%. For the same compound, the “Decomplexation [%]” value [12] was 0.3%, the “Decomplexation [%]” value [13] was 3 ± 1% and the “Decomplexation [%]” value [14] was 4 ± 2%. The “Decomplexation [%]” value [15] was 1%, the “Decomplexation [%]” value [16] was 3% and the “Decomplexation [%]” value [17] was 2 ± 1%. For the same compound, the “Decomplexation [%]” value [18] was 0.9%, the “Decomplexation [%]” value [19] was 0.5% and the “Decomplexation [%]” value [20] was 0.5%. For the same compound, the “Decomplexation [%]” value [21] was 6 ± 2%, the “Decomplexation [%]” value [22] was 49 ± 2% and the “selective uptake in inflamed sites” value (Paw inflammation model; optical imaging and nuclear medicine imaging) was “selective uptake”.
With `[Cu+2]` [^64Cu(II) ion, reference compound] the “selective reactivity with hydrogen sulfide versus biothiol compounds or anions, in words” value [4] was “reacted with various biothiol compounds or anions” and the “retention time relative to ^64CuS” value [23] was “about half of ^64CuS”.
In the case of `[Cu+2].[S-2]` [^64CuS, copper sulfide (^64CuS)], the “excretion from / retention in the body, in words” value ([23]; images immediately and after 4 hours) is reported as “remains for a long time in the body”.

From US10583206B2, “Radioactive probe for detecting hydrogen sulfide” (KYUNGPOOK NATIONAL UNIVERSITY INDUSTRY-ACADEMIC COOPERATION …, priority 2015, dated 2020)
